The values below come from patent publication US10584115B2, “Substituted pyridine and pyrazine BMI-1 inhibitors” (PTC Therapeutics, Inc., priority 2013, dated 2020).

What is called EC50 is the concentration giving half of the maximal effect. Broadly, the melting point is the temperature, or range, at which the solid turns liquid.

Like-named read-outs stand apart in the source and are kept apart here.

For data set [1], the system named is Bmi-1 protein. Description: Sandwich ELISA Assay (Bmi-1 protein level in HT-1080 cells after compound treatment). The class given is cell-based. The procedure, abridged: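 Sandwich ELISA quantified Bmi-1 protein against recombinant standard (125–8000 pg/mL), with lysates captured overnight at 4 °C and signal by HRP/TMB at 450 nm (570 nm reference). Lysates came from HT-1080 cells incubated 40–48 h with test compounds in 0.5% DMSO.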
For orientation: In an ELISA, binding on a coated surface is turned into a signal by an enzyme label.

[2] abbreviates: Table 1, Bmi-1 sandwich ELISA, read-out: ELISA EC50 value for Bmi-1 protein.
Setting [3] is: read-out: ELISA EC50 value for Bmi-1 protein, Table 1, Bmi-1 sandwich ELISA.

Consider `Cc1nc2c(F)cc(F)cn2c1-c1cc(C#N)cc(Nc2ccc(OC(F)F)cc2)n1` [compound 442, 2-{[4-(difluoromethoxy)phenyl]amino}-6-(6,8-difluoro-2-methylimidazo[1,2-a]pyridin-3-yl)pyridine-4-carbonitrile], for which the melting point was in the range of 236 to 238 °C. For the same compound, the EC50 in data set [1] (setting [2]) was 1 to 10 nM.

`Cc1nc2ncc(F)cn2c1-c1cc(C#N)cc(Nc2ccc(C(F)(F)F)cc2)n1` [compound 437, 2-(6-fluoro-2-methylimidazo[1,2-a]pyrimidin-3-yl)-6-{[4-(trifluoromethyl)phenyl]amino}pyridine-4-carbonitrile]: the melting point was in the range of 290 to 292 °C. The EC50 in data set [1] (setting [2]) fell in the range of 1 to 10 nM.

Take `N#Cc1cc(Nc2ccc(C(F)(F)F)cc2)nc(-n2c(C3CC3)nc3ccc(F)cc32)c1` [compound 410, 2-(2-cyclopropyl-6-fluoro-1H-benzimidazol-1-yl)-6-{[4-(trifluoromethyl)phenyl]amino}pyridine-4-carbonitrile]: the melting point fell in the range of 291 to 293 °C. Further, in data set [1] (setting [2]), the EC50 fell in the range of 10 to 100 nM.

On to `FC(F)c1nc2ccccc2n1-c1cncc(Nc2ccc(C(F)(F)F)cc2)n1` [compound 481, 6-[2-(difluoromethyl)-1H-benzimidazol-1-yl]-N-[4-(trifluoromethyl)phenyl]pyrazin-2-amine], for which the melting point lay in the range of 229 to 231 °C. For the same compound, the EC50 in data set [1] (setting [2]) was 10 to 100 nM.

The compound `Cc1cn2c(-c3cc(C#N)cc(Nc4ccc(C(F)(F)F)cc4)n3)c(C)nc2c(C)n1` [compound 487, 2-{[4-(trifluoromethyl)phenyl]amino}-6-(2,6,8-trimethylimidazo[1,2-a]pyrazin-3-yl)pyridine-4-carbonitrile] showed a melting point of 237 to 238 °C. Besides, the EC50 in data set [1] (setting [2]) lay in the range of 10 to 100 nM.

In turn, `Cc1nc2ccc(F)cc2n1-c1cncc(Nc2ccc(OC(F)(F)F)cc2)n1` [compound 230, 6-(6-fluoro-2-methyl-1H-benzimidazol-1-yl)-N-[4-(trifluoromethoxy)phenyl]pyrazin-2-amine] displayed a melting point of 215 to 217 °C. In data set [1] (setting [2]), the EC50 fell in the range of 10 to 100 nM.

`Fc1ccc2nc(C3CC3)c(-c3cncc(Nc4ccc(OC(F)F)cc4)n3)n2c1` [compound 337, 6-(2-cyclopropyl-6-fluoroimidazo[1,2-a]pyridin-3-yl)-N-[4-(difluoromethoxy)phenyl]pyrazin-2-amine] returned a melting point of 183 to 185 °C. Further, in data set [1] (setting [2]), the EC50 was below 1 nM.

For `Nc1cc(Nc2ccc(C(F)(F)F)cc2)nc(-c2c(C3CC3)nc3ccc(F)cn23)c1` [compound 363, 6-(2-cyclopropyl-6-fluoroimidazo[1,2-a]pyridin-3-yl)-N^2-[4-(trifluoromethyl)phenyl]pyridine-2,4-diamine], the melting point lay within 160 to 162 °C. Moreover, in data set [1] (setting [2]), the EC50 was 100 to 3000 nM.

In the case of `Fc1ccc2nc(C3CC3)n(-c3cncc(Nc4ccc(C(F)(F)F)cc4)n3)c2c1` [compound 362, 6-(2-cyclopropyl-6-fluoro-1H-benzimidazol-1-yl)-N-[4-(trifluoromethyl)phenyl]pyrazin-2-amine], the melting point lay within 263 to 265 °C. Besides, the EC50 in data set [1] (setting [2]) was 1 to 10 nM.

The compound `CCOC(=O)n1nc(C)c(-c2cncc(Nc3ccc(C(F)(F)F)cc3)n2)c1C` [compound 278, ethyl 3,5-dimethyl-4-(6-{[4-(trifluoromethyl)phenyl]amino}pyrazin-2-yl)-1H-pyrazole-1-carboxylate] gave a melting point of 122 to 123 °C. For the same compound, the EC50 in data set [1] (setting [2]) was in the range of 100 to 3000 nM.

Compound `Cc1nc2ccc(F)cn2c1-c1cc(C#N)cc(Nc2ccc(C(F)(F)F)c(F)c2)n1` [compound 312, 2-(6-fluoro-2-methylimidazo[1,2-a]pyridin-3-yl)-6-{[3-fluoro-4-(trifluoromethyl)phenyl]amino}pyridine-4-carbonitrile] had a melting point of 245 to 249 °C. Also, the EC50 in data set [1] (setting [2]) was in the range of 10 to 100 nM.

Take `Fc1ccc2nc(C(F)F)c(-c3cncc(Nc4ccc(OC(F)F)nc4)n3)n2c1` [compound 479, N-[6-(difluoromethoxy)pyridin-3-yl]-6-[2-(difluoromethyl)-6-fluoroimidazo[1,2-a]pyridin-3-yl]pyrazin-2-amine]: the melting point was in the range of 225 to 227 °C. Besides, the EC50 in data set [1] (setting [2]) fell in the range of 1 to 10 nM.

As for `Cc1nn(C)c(C)c1-c1cc(C#N)cc(Nc2ccc(C(F)(F)F)cc2)n1` [compound 263, 2-{[4-(trifluoromethyl)phenyl]amino}-6-(1,3,5-trimethyl-1H-pyrazol-4-yl)pyridine-4-carbonitrile], the melting point was in the range of 182 to 183 °C. For the same compound, in data set [1] (setting [2]), the EC50 fell in the range of 1 to 10 nM.

Turning to `Cc1nn(C)c(C)c1-c1cccc(Nc2ccc(C(F)(F)F)cc2)n1` [compound 145, N-[4-(trifluoromethyl)phenyl]-6-(1,3,5-trimethyl-1H-pyrazol-4-yl)pyridin-2-amine], the melting point fell in the range of 48 to 50 °C. Moreover, the EC50 in data set [1] (setting [2]) lay in the range of 10 to 100 nM.

`COc1ccc(Nc2cc(C#N)cc(-c3c(C)nc4ccc(F)cn34)n2)cc1` [compound 649, 2-(6-fluoro-2-methylimidazo[1,2-a]pyridin-3-yl)-6-[(4-methoxyphenyl)amino}pyridine-4-carbonitrile]: the melting point was 190 to 192 °C. Moreover, in data set [1] (setting [2]), the EC50 is 1 to 10 nM.

In the case of `Cc1nc2ccccn2c1-c1cncc(Nc2ccc(C(F)(F)F)cc2)n1` [compound 202, 6-(2-methylimidazo[1,2-a]pyridin-3-yl)-N-[4-(trifluoromethyl)phenyl]pyrazin-2-amine], the melting point was in the range of 180 to 182 °C. Besides, in data set [1] (setting [2]), the EC50 is below 1 nM.

In the case of `Cc1nc2ccc(F)cn2c1-c1cncc(Nc2ccccc2)n1` [compound 590, 6-(6-fluoro-2-methylimidazo[1,2-a]pyridin-3-yl)-N-phenylpyrazin-2-amine], the melting point lay within 216 to 218 °C. For the same compound, the EC50 in data set [1] (setting [3]) was 10 to 100 nM.

For `CCc1nc2ccc(F)cc2n1-c1cncc(Nc2ccc(C)cc2)n1` [compound 622, 6-(2-ethyl-6-fluoro-1H-benzimidazol-1-yl)-N-(4-methylphenyl)pyrazin-2-amine], the melting point was in the range of 223 to 226 °C. In addition, the EC50 in data set [1] (setting [2]) was in the range of 1 to 10 nM.

Regarding `FC(F)(F)Oc1ccc(Nc2cncc(-c3c(C4CC4)nc4ccc(C(F)(F)F)cn34)n2)cc1` [compound 252, 6-[2-cyclopropyl-6-(trifluoromethyl)imidazo[1,2-a]pyridin-3-yl]-N-[4-(trifluoromethoxy)phenyl]pyrazin-2-amine], the melting point lay within 213 to 215 °C. Also, in data set [1] (setting [2]), the EC50 lay within 100 to 3000 nM.

In turn, `Cc1nn(Cc2ccccn2)c(C)c1-c1cncc(Nc2ccc(OC(F)F)cc2)n1` [compound 401, N-[4-(difluoromethoxy)phenyl]-6-[3,5-dimethyl-1-(pyridin-2-ylmethyl)-1H-pyrazol-4-yl]pyrazin-2-amine] returned a melting point of 47 to 48 °C. Also, the EC50 in data set [1] (setting [2]) lay within 100 to 3000 nM.

`Fc1ccc2c(c1)nc(C1CC1)n2-c1cncc(Nc2ccc(OC(F)F)cc2)n1` [compound 227, 6-(2-cyclopropyl-5-fluoro-1H-benzimidazol-1-yl)-N-[4-(difluoromethoxy)phenyl]pyrazin-2-amine] yielded a melting point of 188 to 190 °C. Further, the EC50 in data set [1] (setting [2]) was in the range of 10 to 100 nM.

As for `Cc1nc2ccc(F)cc2n1-c1cc(C#N)cc(Nc2ccc(OC(F)F)cc2)n1` [compound 262, 2-{[4-(difluoromethoxy)phenyl]amino}-6-(6-fluoro-2-methyl-1H-benzimidazol-1-yl)pyridine-4-carbonitrile], the melting point fell in the range of 231 to 232 °C. For the same compound, in data set [1] (setting [2]), the EC50 was in the range of 10 to 100 nM.

Compound `Cc1nc2c(F)cc(F)cn2c1-c1cc(C#N)cc(Nc2ccc(OC(F)F)c(F)c2)n1` [compound 444, 2-{[4-(difluoromethoxy)-3-fluorophenyl]amino}-6-(6,8-difluoro-2-methylimidazo[1,2-a]pyridin-3-yl)pyridine-4-carbonitrile] showed a melting point of 238 to 241 °C. Also, in data set [1] (setting [2]), the EC50 is 10 to 100 nM.

The compound `CCc1nc2ccc(F)cc2n1-c1cncc(Nc2ccc(OC(F)F)cc2)n1` [compound 260, N-[4-(difluoromethoxy)phenyl]-6-(2-ethyl-6-fluoro-1H-benzimidazol-1-yl)pyrazin-2-amine] had a melting point of 205 to 207 °C. In addition, the EC50 in data set [1] (setting [2]) was 1 to 10 nM.

The compound `FC(F)(F)c1ccc(Nc2cncc(-c3c(C4CC4)nc4ccc(C(F)(F)F)cn34)n2)cc1` [compound 250, 6-[2-cyclopropyl-6-(trifluoromethyl)imidazo[1,2-a]pyridin-3-yl]-N-[4-(trifluoromethyl)phenyl]pyrazin-2-amine] gave a melting point of 240 to 241 °C. Besides, the EC50 in data set [1] (setting [3]) lay within 10 to 100 nM.

In turn, `Fc1ccc2nc(C(F)F)c(-c3cncc(Nc4ccc(OC(F)F)cc4)n3)n2c1` [compound 473, N-[4-(difluoromethoxy)phenyl]-6-[2-(difluoromethyl)-6-fluoroimidazo[1,2-a]pyridin-3-yl]pyrazin-2-amine] came in with a melting point of 167 to 169 °C. The EC50 in data set [1] (setting [2]) is below 1 nM.

In the case of `N#Cc1cc(Nc2ccc(C(F)(F)F)cc2)nc(-n2c(C(F)F)nc3ccccc32)c1` [compound 484, 2-[2-(difluoromethyl)-1H-benzimidazol-1-yl]-6-{[4-(trifluoromethyl)phenyl]amino}pyridine-4-carbonitrile], the melting point fell in the range of 225 to 227 °C. Further, in data set [1] (setting [2]), the EC50 was 10 to 100 nM.

With `FC(F)Oc1ccc(Nc2cncc(-n3c(C(F)F)nc4ccccc43)n2)cc1` [compound 482, N-[4-(difluoromethoxy)phenyl]-6-[2-(difluoromethyl)-1H-benzimidazol-1-yl]pyrazin-2-amine], the melting point was 213 to 216 °C. Further, the EC50 in data set [1] (setting [2]) fell in the range of 10 to 100 nM.

In turn, `FC1(F)Oc2ccc(Nc3cncc(-c4cccc5nc(C6CCC6)cn45)n3)cc2O1` [compound 117, 6-(2-cyclobutylimidazo[1,2-a]pyridin-5-yl)-N-(2,2-difluoro-1,3-benzodioxol-5-yl)pyrazin-2-amine] returned a melting point of 302 to 305 °C. The EC50 in data set [1] (setting [2]) was 100 to 3000 nM.
